We go through two molecules from patent US8372421B2, “Inhibition of mitogen-activated protein kinases in cardiovascular disease” (New York University, priority 2004, dated 2013).

Test [1] deals with balloon-injured carotid arteries. Particulars: delivered pre- and post-operatively; effect relatively modest; cited from earlier work.
The next test has as its system ERK-1/2 activation. Particulars: cited from earlier work.
In test [2] the test system is arterialized vein graft wall. To be noted: EJV immersed 20 minutes in 80 μmoles/L UO126 before grafting; AVG harvested at 28 days; 1% cholesterol chow; DMSO controls 358.2+/−190.3; p=0.012. The method, then:
The experimental procedure followed in the canine model described in Examples 1, 2, and 3 was applied to white New Zealand rabbits fed a 1% cholesterol chow. Prior to grafting, the excised autologous EJVs were fully immersed for 20 minutes at room temperature in about 5 ml of a solution containing 80 μmoles/L of UO126 (solubilized with DMSO and diluted in PBS) or vehicle (DMSO, 0.8%) alone in PBS. Each EJV was grafted to a carotid artery. Autologous femoral vein was excised but not treated or grafted. The veins were fixed in formaldehyde, and sections stained with hematoxylin/eosin were used for the following analysis.

Another test deals with ERK-1/2. Particulars: excised EJV immersed 20 minutes in 80 μmmoles/L UO126 before grafting; 3 hours post-grafting; relative to DMSO-pretreated EJVs. The method, then:
(§1) Carotid artery bypass using reversed autologous external jugular vein (EJV) was performed on 29 purpose-bred mongrel dogs. Following skin incision, the EJV was exposed with a “no-touch” technique, and the side branches were clipped and divided. The dogs received heparin systemically (100 U/kg) and the ipsilateral common carotid artery was dissected free of the surrounding tissue. The EJV was ligated and excised. The lumen of the EJV was flushed with plasmalyte solution without distending the vein. A segment of the excised vein was removed and labeled (“control 1”). The EJV was reversed and grafted to the common carotid artery in an end-to-side fashion with 7-0 polypropylene suture, and the carotid artery was ligated and divided. See Saunders et al., J Thorac Cardiovasc Surg. 2004; 127:1276-1284.
(§2) Each EJV was grafted to a carotid artery. Autologous femoral vein was excised but not treated or grafted.

Another test concerns PCNA expression. To be noted: EJV pretreated with 80 μM UO126; 24 hours and 4 days post-grafting; relative to DMSO-pretreated EJVs. Here is the method: as §1, §2
The next test has as its system medial cell apoptosis. To be noted: EJV pretreated with 80 μM UO126; 1 day and 4 days post-anastomosis. Here is the method:
as §1, §2

Test [3] concerns myeloperoxidase-positive (MPO) cells. Particulars: graft immersed in UO126 (80 μM/L) prior to grafting; 24 hours and 4 days post-operatively. Here is the method: as §1
(§3) Inflammation is a key component of a vessel's response to injury.
(§4) This experiment, which also used the canine model described in Example 1, investigated the levels of CRP and MPO cells in arterialized vein grafts immersed in a solution of UO126 (80 μM/L) (solubilized with DMSO and diluted in PBS) prior to grafting (i.e., pretreated grafts), arterialized vein grafts that were not pretreated, and contralateral ungrafted, un-pretreated external jugular veins.

In a further test the test system is C reactive protein (CRP). To be noted: graft immersed in UO126 (80 μM/L) prior to grafting; 24 hours post-operatively. The method, then:
as §1, §3, §4

On to `COc1cccc(-c2cc(=O)c3ccccc3o2)c1N` [PD98059, 2-(2′-amino-3′-methoxyphenyl) oxanaphthalen-4-one], for which, in test [1], the ERK activation result was “inhibit” and the medial cell proliferation entry is “inhibit”.

With `N#CC(=C(N)Sc1ccccc1N)C(C#N)=C(N)Sc1ccccc1N` [UO126, 1,4-diamino-2,3-dicyano-1,4-bis[2-aminophenylthio]butadiene], the “potency as inhibitor of ERK-1/2 activation compared with PD098059” value in the test with ERK-1/2 activation was “more potent”. The “vein wall thickness (intima+media) to luminal circumference ratio (mean value+/−SD)” value in test [2] is listed as 288.8+/−109.5. The “ERK-1/2 activation (ratio of phosphorylated to total ERK-1/2)” value with ERK-1/2 was “significantly reduced”. For the same molecule, the PCNA expression entry in the test with PCNA expression is on record as “markedly decreased”. The “medial cell apoptosis (TUNEL)” value in the test with medial cell apoptosis was “marked and sustained (up to 4 days) induction”. Moreover, the “levels of MPO cells associated with arterialized vein grafts” value in test [3] was “significantly downregulated”. Besides, in the test with C reactive protein (CRP), the “upregulation of CRP in arterialized vein grafts” value is “does not affect”.
